Reference: patent publication US20110200556A1, “CHEMOPREVENTION OF HEAD AND NECK SQUAMOUS CELL CARCINOMAS” (THE UNITED STATES OF AMERICA, AS REPRESENTED BY TH E …, priority 2008, published 2011)

System: tongue and oral mucosa
Test: Oral chemical carcinogenesis by 4NQO in the drinking water
Assay type: in vivo, C57B1/6 mice
Conditions: 4NQO 50 μg/ml in drinking water, week 12
Method: Water was changed weekly.
Methods: Animal studies were carried out according to NIH-approved protocols, in compliance with the Guide for the Care and Use of Laboratory Animals. Female C57B1/6 mice (Harlan Sprague-Dawley, National Cancer Institute at Frederick, Md., USA) 4-6 weeks old and weighing 18 to 20 g, were housed in appropriate sterile filter-capped cages, and fed and given water ad libitum. […] All animals underwent a bi-weekly full oral cavity examination under anesthesia (2-5% Isoflurane, Baxter, Deerfield, Ill., mixed with oxygen), and any observed pathological changes were documented. Animals were euthanized either on week 16 or week 22 for tissue retrieval. Complete autopsies were performed, and tissues were immediately collected and fixed in buffered zinc-formalin (Z-fix, Anatech, Mich.) at room temperature for 12 h. The tissues were then transferred to alcohol 70%, processed for paraffin embedding for histopathological diagnosis and further studies. […] Animals were monitored daily for general behavioral abnormalities, signs of toxicity, illness or discomfort. Animals were euthanized on week 22, and tissue retrieval was performed as described above.
Water was replaced weekly, and mice were monitored prior to each water change. […] All animals underwent a bi-weekly full oral cavity examination, and any pathological changes were documented. […]

O=[N+]([O-])c1cc[n+]([O-])c2ccccc12 [4NQO, 4-nitroquinoline-1 oxide]
mice that developed tumors in the tongue and other areas of the oral mucosa: around 50%
